# Entries after “also recorded” stand apart in the source; their conditions may differ. Where two headings read alike, the source gives them in different places.
# Legend:
# [1] = system: Plasmodium falciparum 3D7-A10 parasites; test: Stage specificity assay (8-h exposure of synchronized stages, IC50^8h); assay type: cell-based; conditions: for IC50: Plasmodium falciparum
# [2] = system: asynchronous 3D7-A10 parasite cultures; test: Standard 72-h exposure asexual blood stage susceptibility assay (IC50^72h); assay type: cell-based, Plasmodium falciparum; conditions: Plasmodium falciparum, 3D7, 72 h, read-out: Overall (72hr assay) Mean IC50 (IC50^72h)
# [3] = system: 3D7-MR4 trophozoite parasite-infected RBCs; test: Metabolomic profiling (hydrophilic metabolite changes, UHPLC-MS); assay type: cell-based, Plasmodium falciparum
compound,measurement,setting,value
"CCCCN(CCCC)CC(O)c1cc(Cl)cc2c1-c1ccc(Cl)cc1/C2=C/c1ccc(Cl)cc1 (centres unmarked) [Lumefantrine, reference compound]",Ratio lowest IC50 8hr/IC50 72hr,[1]; 3D7-A10,11.6
same,IC50,"[1]; 3D7, read-out: Early rings Mean IC50 (IC50^8h), 8-h exposure 0–8 hr, 3D7-A10, survival at 60 h",15.4 nM
same,IC50,"[1]; 3D7, read-out: Early trophozoites Mean IC50 (IC50^8h), 8-h exposure 16–24 hr, 3D7-A10, survival at 60 h",19.5 nM
same,IC50,"[1]; 3D7, read-out: IC50^8h values, text summary of Table S1",< 300 nM
same,IC50,"[1]; 3D7, read-out: Late rings Mean IC50 (IC50^8h), 8-h exposure 8–16 hr, 3D7-A10, survival at 60 h",15.8 nM
same,IC50,"[1]; 3D7, read-out: Late trophozoites Mean IC50 (IC50^8h), 8-h exposure 24–32 hr, 3D7-A10, survival at 60 h",22.3 nM
same,IC50,"[1]; 3D7, read-out: Schizonts Mean IC50 (IC50^8h), 8-h exposure 32–40 hr, 3D7-A10, survival at 60 h",81 nM
same,Stage of peak activity (Figure 6),[1]; period when the parasite was most susceptible (lowest IC50^8h),ring and trophozoite stages; also recorded: both rings and trophozoites
same,IC50,[2],1.3 nM
same,peptide levels (hemoglobin catabolism signature),"[3]; 10 × IC50^72h, 2.5 hr, trophozoites",minor peptide increases
same,Log2(fold changes) 3-phosphoglycerate,"[3]; metabolite 3-phosphoglycerate, log2 fold change",0.2561
same,Log2(fold changes) 4-Pyridoxic acid,"[3]; metabolite 4-Pyridoxic acid, log2 fold change",0.0070
same,Log2(fold changes) 4-aminobutyrate,"[3]; metabolite 4-aminobutyrate, log2 fold change",-0.1610
same,Log2(fold changes) 4-phosphopantetheine,"[3]; metabolite 4-phosphopantetheine, log2 fold change",0.0000
same,Log2(fold changes) 4-phosphopantothenate,"[3]; metabolite 4-phosphopantothenate, log2 fold change",0.0324
same,Log2(fold changes) 5-aminopentanoic acid,"[3]; metabolite 5-aminopentanoic acid, log2 fold change",0.0000
same,Log2(fold changes) 5-methyl-THF,"[3]; metabolite 5-methyl-THF, log2 fold change",0.0000
same,Log2(fold changes) 5-phosphoribosyl-1-pyrophosphate,"[3]; metabolite 5-phosphoribosyl-1-pyrophosphate, log2 fold change",0.0000
same,Log2(fold changes) 6-phospho-D-gluconate,"[3]; metabolite 6-phospho-D-gluconate, log2 fold change",-0.0221
same,Log2(fold change) HVDD,[3]; metabolite HVDD,0.0000
same,Log2(fold change) Hydroxyisocaproic acid,[3]; metabolite Hydroxyisocaproic acid,0.0000
same,Log2(fold change) IDP,[3]; metabolite IDP,0.0726
same,Log2(fold change) IMP,[3]; metabolite IMP,0.0056
same,Log2(fold change) Inositol,[3]; metabolite Inositol,0.0000
same,Log2(fold change) Isopentyl-PP,[3]; metabolite Isopentyl-PP,0.0000
same,Log2(fold change) L-arginino-succinate,[3]; metabolite L-arginino-succinate,-0.9519
same,Log2(fold change) LD,[3]; metabolite LD,-0.1057
same,Log2(fold change) Myristoyl/tetradecanoyl-CoA,[3]; metabolite Myristoyl/tetradecanoyl-CoA,0.0333
same,Log2(fold change) N-Acetyl-L-alanine,[3]; metabolite N-Acetyl-L-alanine,-0.2647
same,Log2(fold change) N-acetyl-L-ornithine,[3]; metabolite N-acetyl-L-ornithine,-0.6357
same,Log2(fold change) N-acetyl-glucosamine-1/6-phosphate,[3]; metabolite N-acetyl-glucosamine-1/6-phosphate,0.0000
same,Log2(fold change) N-acetyl-glutamate,[3]; metabolite N-acetyl-glutamate,-0.0437
same,Log2(fold change) N-acetyl-glutamine,[3]; metabolite N-acetyl-glutamine,0.0000
same,Log2(fold change) N-carbamoyl-L-aspartate,[3]; metabolite N-carbamoyl-L-aspartate,-0.1460
same,Log2(fold change) NAD+,[3]; metabolite NAD+,-0.0402
same,Log2(fold change) NADH,[3]; metabolite NADH,0.0000
same,Log2(fold change) NADP+,[3]; metabolite NADP+,-0.0151
same,Log2(fold change) NADPH,[3]; metabolite NADPH,-0.2368
same,Log2(fold change) O-acetyl-L-serine,[3]; metabolite O-acetyl-L-serine,0.0000
same,Log2(fold change) Octoluse 8/1P,[3]; metabolite Octoluse 8/1P,-0.0627
same,Log2(fold change) Octoluse Bisphosphate,[3]; metabolite Octoluse Bisphosphate,-0.2224
same,Log2(fold change) PD,[3]; metabolite PD,-0.6715
same,Log2(fold change) PE,[3]; metabolite PE,-0.8261
same,Log2(fold change) PEE,[3]; metabolite PEE,-0.8026
same,Log2(fold change) PEEK,[3]; metabolite PEEK,-1.0553
same,Log2(fold change) PVNF,[3]; metabolite PVNF,-1.0323
same,Log2(fold change) Pyroglutamic acid,[3]; metabolite Pyroglutamic acid,-0.2992
same,Log2(fold change) Pyrophosphate,[3]; metabolite Pyrophosphate,0.0000
same,Log2(fold change) Ribose-5-phosphate,[3]; metabolite Ribose-5-phosphate,-0.3541
same,Log2(fold change) S-adenosyl-L-homocysteine,[3]; metabolite S-adenosyl-L-homocysteine,-0.4489
same,Log2(fold change) S-adenosyl-L-methioninamine,[3]; metabolite S-adenosyl-L-methioninamine,0.0000
same,Log2(fold change) S-adenosyl-L-methionine,[3]; metabolite S-adenosyl-L-methionine,0.0000
same,Log2(fold change) S-methyl-5'-thioadenosine,[3]; metabolite S-methyl-5'-thioadenosine,0.0780
same,Log2(fold change) SD,[3]; metabolite SD,-0.5378
same,Log2(fold change) SDL,[3]; metabolite SDL,-0.2618
same,Log2(fold change) SID,[3]; metabolite SID,-0.7176
same,Log2(fold change) Sedoheptulose bisphosphate,[3]; metabolite Sedoheptulose bisphosphate,-0.0691
same,Log2(fold change) Thiamine pyrophosphate,[3]; metabolite Thiamine pyrophosphate,0.0528
same,Log2(fold changes) UDP-D-glucose,"[3]; metabolite UDP-D-glucose, log2 fold change",0.0221
same,Log2(fold changes) UDP-D-glucuronate,"[3]; metabolite UDP-D-glucuronate, log2 fold change",0.0757
same,Log2(fold changes) UDP-N-acetyl-glucosamine,"[3]; metabolite UDP-N-acetyl-glucosamine, log2 fold change",-0.0029
same,Log2(fold changes) UDP,"[3]; metabolite UDP, log2 fold change",0.0413
same,Log2(fold changes) UMP,"[3]; metabolite UMP, log2 fold change",0.0984
same,Log2(fold changes) UTP,"[3]; metabolite UTP, log2 fold change",0.0275
same,Log2(fold change) hydroxyphenylpyruvate,[3]; metabolite hydroxyphenylpyruvate,0.0000
same,Log2(fold change) hydroxyproline/Aminolevulinate,[3]; metabolite hydroxyproline/Aminolevulinate,-0.1667
same,Log2(fold change) hypoxanthine,[3]; metabolite hypoxanthine,0.0000
same,Log2(fold change) indole,[3]; metabolite indole,0.0000
same,Log2(fold change) inosine,[3]; metabolite inosine,-0.7307
same,Log2(fold change) isoleucine,[3]; metabolite isoleucine,-0.3373
same,Log2(fold change) lactate,[3]; metabolite lactate,-0.7427
same,Log2(fold change) leucine,[3]; metabolite leucine,-0.5467
same,Log2(fold change) lysine,[3]; metabolite lysine,-0.9287
same,Log2(fold change) malate,[3]; metabolite malate,-0.2859
same,Log2(fold change) maleic acid,[3]; metabolite maleic acid,-0.2558
same,Log2(fold change) methionine,[3]; metabolite methionine,-0.5836
same,Log2(fold change) myo-inositol,[3]; metabolite myo-inositol,-1.2017
same,Log2(fold change) nicotinamide mononucleotide,[3]; metabolite nicotinamide mononucleotide,-0.1717
same,Log2(fold change) nicotinate,[3]; metabolite nicotinate,-0.0538
same,Log2(fold change) ornithine,[3]; metabolite ornithine,0.0000
same,Log2(fold change) orotate,[3]; metabolite orotate,-0.5668
same,Log2(fold change) orotidine-5'-phosphate,[3]; metabolite orotidine-5'-phosphate,-1.0458
same,Log2(fold change) oxaloacetate,[3]; metabolite oxaloacetate,0.0000
same,Log2(fold change) p-aminobenzoate,[3]; metabolite p-aminobenzoate,0.0000
same,Log2(fold change) p-hydroxybenzoate,[3]; metabolite p-hydroxybenzoate,0.0000
same,Log2(fold change) pantothenate,[3]; metabolite pantothenate,0.0000
same,Log2(fold change) phenylalanine,[3]; metabolite phenylalanine,-0.5609
same,Log2(fold change) phenylpyruvate,[3]; metabolite phenylpyruvate,0.0000
same,Log2(fold change) phosphoenolpyruvate,[3]; metabolite phosphoenolpyruvate,0.3731
same,Log2(fold change) prephenate,[3]; metabolite prephenate,0.0000
same,Log2(fold change) proline,[3]; metabolite proline,-0.4274
same,Log2(fold change) pyridoxine,[3]; metabolite pyridoxine,-0.6579
same,Log2(fold change) pyruvate,[3]; metabolite pyruvate,-0.6264
same,Log2(fold change) riboflavin,[3]; metabolite riboflavin,-0.1882
same,Log2(fold change) ribose,[3]; metabolite ribose,-0.6495
same,Log2(fold change) ribose-phosphate,[3]; metabolite ribose-phosphate,-0.3829
same,Log2(fold change) ribulose-5-phosphate,[3]; metabolite ribulose-5-phosphate,-0.2140
same,Log2(fold change) serine,[3]; metabolite serine,-0.3504
same,Log2(fold change) sn-glycerol-3-phosphate,[3]; metabolite sn-glycerol-3-phosphate,0.0117
same,Log2(fold change) succinate/Methylmalonic acid,[3]; metabolite succinate/Methylmalonic acid,0.0257
same,Log2(fold change) succinyl-CoA/methylmalonyl-CoA,[3]; metabolite succinyl-CoA/methylmalonyl-CoA,0.0000
same,Log2(fold change) taurine,[3]; metabolite taurine,-0.1171
same,Log2(fold change) thiamine,[3]; metabolite thiamine,-0.2236
same,Log2(fold change) threonine/homoserine,[3]; metabolite threonine/homoserine,-0.3606
same,Log2(fold change) thymidine,[3]; metabolite thymidine,0.0000
same,Log2(fold changes) thymine,"[3]; metabolite thymine, log2 fold change",0.0000
same,Log2(fold changes) trehalose-6-Phosphate,"[3]; metabolite trehalose-6-Phosphate, log2 fold change",0.0000
same,Log2(fold changes) tryptophan,"[3]; metabolite tryptophan, log2 fold change",-0.3412
same,Log2(fold changes) tyrosine,"[3]; metabolite tyrosine, log2 fold change",-0.2808
same,Log2(fold changes) uridine,"[3]; metabolite uridine, log2 fold change",0.0000
